Assay [1] has as its target T1, Human immunodeficiency virus type 1 protease (Human immunodeficiency virus 1, UniProt Q72874). Nature of the assay: Inhibitory activity was evaluated against human immunodeficiency virus type 1(HIV-1) protease at pH 6.2.
Assay [2] deals with T1, Human immunodeficiency virus type 1 protease. Nature of the assay: ChEBML_79977. Particulars: pH 4.7. As for the experimental part:
Inhibitory activity was evaluated against human immunodeficiency virus type 1(HIV-1) protease at pH 4.7

The term IC50 denotes the point on the concentration scale where inhibition reaches its midpoint. A higher IC50 goes with weaker potency in that assay. As to `CC(C)(C)c1oc2ccccc2c1SC1C(=O)CC(CCc2ccccc2)(c2ccccc2)OC1=O` (centres undefined) [3-(2-tert-Butyl-benzofuran-3-ylsulfanyl)-4-hydroxy-6-phenethyl-6-phenyl-5,6-dihydro-pyran-2-one], the half-maximal inhibitory concentration (IC50) in assay [1] amounted to 211 nM. The molecule `CCc1c(SC2C(=O)CC(CCc3ccccc3)(c3ccccc3)OC2=O)sc2ccccc12` (centres undefined) [3-(3-Ethyl-benzo[b]thiophen-2-ylsulfanyl)-4-hydroxy-6-phenethyl-6-phenyl-5,6-dihydro-pyran-2-one] had a 50% inhibitory concentration (IC50) in assay [2] of 28 nM. As for `CC(C)(C)c1cc2c(cc1SC1C(=O)CC(CCc3ccccc3)(c3ccccc3)OC1=O)CCCC2` (centres undefined) [3-(3-tert-Butyl-5,6,7,8-tetrahydro-naphthalen-2-ylsulfanyl)-4-hydroxy-6-phenethyl-6-phenyl-5,6-dihydro-pyran-2-one], the IC50 in assay [2] is 28 nM. Regarding `CC(C)(C)c1cc2c(cc1SC1C(=O)CC(CCc3ccccc3)(c3ccccc3)OC1=O)CCC2` (centres undefined) [3-(6-tert-Butyl-indan-5-ylsulfanyl)-4-hydroxy-6-phenethyl-6-phenyl-5,6-dihydro-pyran-2-one], it took 130 nM to reach half-maximal inhibition in assay [1] (IC50).

The record behind these values is BindingDB's records for doi:10.1016/s0960-894x(99)00332-7 (Warner-Lambert, 1999).
